Source: patent US20160279079A1, “COMPOSITIONS AND METHODS FOR TREATING BONE DISEASES” (INDIANA UNIVERSITY RESEARCH AND TECHNOLOGY CORPORATION, priority 2013, published 2016)
Read-outs that look alike come from different tables or passages of the source.

How the values were obtained:
[1] = system: RAW264.7 mouse pre-osteoclast (monocyte/macrophage) cells; assay: Cell mortality and live cell numbers (trypan blue, hemacytometer); assay type: cell-based
Description: METHOD EXAMPLE. Cell culture. MC3T3 E1 mouse osteoblast-like cells (clone 14—MC3T3 E1-14; and no clonal cells in supplementary figures), and RAW264.7 mouse pre-osteoclast (monocyte/macrophage) cells were cultured in αMEM containing 10% fetal bovine serum and antibiotics (50 units/ml penicillin, and 50 μg/ml streptomycin; Life Technologies, Grand Island, N.Y., USA). Cells were maintained at 37° C. and 5% CO2 in a humidified incubator. Cell mortality and live cell numbers were determined 24 h after the treatment with 20 ng/ml RANKL (PeproTech, Rocky Hills, N.C., USA) in response to 0.1-20 μM salubrinal or 1-20 μM guanabenz acetate (Tocris Bioscience, Ellisville, Mo., USA). Cells were stained with trypan blue and the numbers of live and dead cells were counted using a hemacytometer.
METHOD EXAMPLE. Inhibition of osteoclastogenesis of RAW264.7 cells by salubrinal. The primary aim of this study is to evaluate the effects of salubrinal on osteoclastogenesis. In response to 0.1-20 μM salubrinal for 24 h, cell mortality and live cell numbers of RAW264.7 pre-osteoclasts was examined. […] The number of live cells was increased by ˜50% by incubation with RANKL, and administration of 10-20 μM salubrinal reduced the numbers approximately by 10% (FIG. 3B).
METHOD EXAMPLE. Inhibitory effects of guanabenz on osteoclastogenesis of RAW264.7 cells. To further examine a potential involvement of p-eIF2α in regulation of osteoclastogenesis, we employed guanabenz that also acts as an inhibitor of de-phosphorylation of eIF2α was evaluated. […] Compared to the number of TRAP-positive multi-nucleated cells of 377 39 (RANKL only), guanabenz reduced the number of differentiated osteoclasts to 364±38 (1 μM), 288±51 (5 μM), 189±25 (10 μM), and 73±16 (20 μM).

[2] = system: osteoclast-associated receptor (OSCAR); assay: Quantitative real-time PCR, OSCAR mRNA in RAW264.7 cells; assay type: cell-based, mouse
Description: METHOD EXAMPLE. Quantitative real-time PCR. Total RNA was extracted using an RNeasy Plus mini kit (Qiagen, Germantown, Md., USA). Reverse transcription was conducted with high capacity cDNA reverse transcription kits (Applied Biosystems, Carlsbad, Calif., USA), and quantitative real-time PCR was performed using ABI 7500 with Power SYBR green PCR master mix kits (Applied Biosystems). We evaluated mRNA levels of ATF4, Osteocalcin (OCN), NFATcl, c-Fos, tartrate-resistant acid phosphatase (TRAP), and osteoclast-associated receptor (OSCAR) with the PCR primers listed in Table 1. GAPDH was used for internal control. The relative mRNA abundance for the selected genes with respect to the level of GAPDH mRNA was expressed as a ratio of Streated/Scontrol, where Streated=mRNA level for the cells treated with chemical agents, and Scontrol=mRNA level for control cells.
METHOD EXAMPLE. Partial suppression of mRNA levels of NFATcl, c-Fos, TRAP, and OSCAR by salubrinal. […] On day 2, for instance, the RANKL-driven increase was 9.4±0.5 fold (NFATcl), 1.9±0.1 fold (c-fos), 165±4.2 fold (TRAP), and 467±22 fold (OSCAR). The reduction by 20 μM salubrinal was 46% (NFATcl), 32% (c-fos), 35% (TRAP), and 21% (OSCAR) (FIG. 5A).
(§1) METHOD EXAMPLE. Reduction of RANKL-induced NFATcl, c-Fos, TRAP, and OSCAR by guanabenz. […] The normalized level of “1” was defined as the level for the cells that were not treated with RANKL without administration of guanabenz.

NFATc1 = assay: Western immunoblotting, NFATc1 expression in RAW264.7 cells; assay type: cell-based, mouse; conditions: for expression of NFATc1: absence of RANKL administration
Description: METHOD EXAMPLE. Downregulation of NFATcl in RAW264.7 cells by salubrinal. NFATcl is a transcription factor critical for activating osteoclastogenesis. […] The RANKL-induced expression of NFATcl was reduced by administration of 5-20 μM salubrinal on both days, and the effect of salubrinal was dose dependent (FIG. 4).
as §1
METHOD EXAMPLE. Western Immunoblotting. Cells were lysed in a radioimmunoprecipitation assay (RIPA) buffer containing protease inhibitors (Santa Cruz Biotechnology, Santa Cruz, Calif., USA) and phosphatase inhibitors (Calbiochem, Billerica, Mass., USA). Isolated proteins were fractionated using 10-15% SDS gels and electro-transferred to Immobilon-P membranes (Millipore, Billerica, Mass., USA). The membrane was incubated for 1 h with primary antibodies followed by 45 min incubation with goat anti-rabbit or anti-mouse IgG conjugated with horseradish peroxidase (Cell Signaling, Danvers, Mass., USA). We used antibodies against ATF4, NFATcl (Santa Cruz), p-eIF2α (Thermo Scientific, Waltham, Mass., USA), eIF2α, caspase 3, cleaved caspase 3, p38 and p-p38 mitogen activated protein kinase (MAPK), extracellular signal-regulated kinase (ERK) and p-ERK, nuclear factor kappa B (NFκB) p65 and p-NFκB p65 (Cell Signaling), and β-actin (Sigma). Protein levels were assayed using a SuperSignal west femto maximum sensitivity substrate (Thermo Scientific), and signal intensities were quantified with a luminescent image analyzer (LAS-3000, Fuji Film, Tokyo, Japan).
METHOD EXAMPLE. Temporal profile of p-eIF2α and NFATcl. […] Note that the normalized level of “1” in FIG. 6C was defined as the level for the cells that were not treated with RANKL without administration of guanabenz.

Row | Compound | Cell mortality ratio ([1]; 0.1-20 μM salubrinal, 24 h, presence and absence of RANKL) | reduction of the number of live cells ([1]; 10-20 μM salubrinal, 24 h, with RANKL) [%] | cell mortality ([1]; absence of RANKL administration) | reduction of OSCAR mRNA level ([2]; 20 μM salubrinal, day 2 after RANKL) [%] | OSCAR mRNA level ([2]; 0.1-1 μM salubrinal, with RANKL, day 2 and day 4) | reduction of the level of NFATc1 (NFATc1; 20 μM salubrinal, 8 h, with RANKL) [%] | reduction of the level of NFATc1 (NFATc1; 20 μM salubrinal, 24 h, with RANKL) [%] | level of NFATc1 (NFATc1; 20 μM salubrinal, early period (2-4 h), with RANKL) | RANKL-induced expression of NFATc1 (NFATc1; 5-20 μM salubrinal, day 2 and day 4, dose dependent) | expression of NFATc1 (NFATc1) | cell mortality [1] | OSCAR mRNA level ([2]; 20 μM guanabenz, 2 days after RANKL) | OSCAR mRNA level ([2]; 5 and 10 μM guanabenz, 2 days after RANKL) | temporal expression profile of NFATc1 (NFATc1; 20 μM guanabenz, with RANKL) | induction of NFATc1 by RANKL (NFATc1; guanabenz dose response, 2 days after RANKL)
1 | O=C(/C=C/c1ccccc1)NC(NC(=S)Nc1cccc2cccnc12)C(Cl)(Cl)Cl (stereo not shown) [salubrinal] | did not present statistically significant differences | ~10 | did not significantly alter | 21 | did not contribute to significant reduction | 48 | 44 | did not alter | reduced | did not significantly alter |  |  |  |  | 
2 | N=C(N)N/N=C/c1c(Cl)cccc1Cl [guanabenz] |  |  |  |  |  |  |  |  |  | did not significantly alter | did not significantly alter | reduced | effective in reducing | partially suppressed in 8 h | suppressed by guanabenz in a dose dependent manner
